The text below walks through data of publication PMC6627374, “Effects of the Pentapeptide P33 on Memory and Synaptic Plasticity in APP/PS1 Transgenic Mice: A Novel Mechanism Presenting the Protein Fe65 as a Target” (International Journal of Molecular Sciences, 2019).

“Also recorded” adds a separate entry of the source. Where a SMILES comes first, the peptide text is derived from it.

One assay relates to GFAP-positive astrocytes. Put plainly: GFAP immunohistochemistry, astrocyte density. The format is in vivo, mouse. As to conditions: APP/PS1-vehicle vs. WT-vehicle, WT-P33, APP/PS1-P33; whole HC and CTX; 5 mg∙kg^−1 i.p., six months. On the procedure:
For this study, three-month-old male and female WT and APP/PS1 mice (n = 37) were used. Four groups were defined: WT-vehicle (physiological saline) (male n = 4; female n = 6), WT-P33 (male n = 6; female n = 5), APP/PS1-vehicle (male n = 3; female n = 5), and APP/PS1-P33 (male n = 6; female n = 2). Animals were subjected to intraperitoneal (i.p.) injections of P33 (5 mg∙kg^−1) for five days per week, over a course of six months. The mice were kept in groups under constant temperature (23 ± 0.5 °C), lighting (12-h/12-h light/dark cycle, lights on at 7:00 a.m.), and humidity (~50%). Standard mouse chow and tap water were supplied ad libitum. All behavioral experiments were performed in the light period. Handling was done daily at the same time.
Mice (five animals per group) were anaesthetized with chloral-hydrate (1 mg∙kg^−1) and perfused transcardially with PBS, followed by ice-cold 4% paraformaldehyde. The brains were removed, post-fixed in the same fixative, and immersed in a 30% sucrose solution containing 0.01% sodium-azide. […]
Slides were scanned by a digital slide scanner (Mirax Midi, 3DHistech Ltd., Budapest, Hungary), equipped with a Pannoramic Viewer 1.15.4, CaseViewer 2.1 program and a QuantCenter, HistoQuant module (3DHistech Ltd., Budapest, Hungary). For quantification, all of the sections were analyzed. […] Antibody-positive cell types from the ROIs were counted and quantified. […]

For assay [1], the system named is Pin1-WW domain (WW domain of Pin1). Put plainly: ITC binding to Pin1-WW. As to conditions: 310 K, PBS pH 7.4, Pin1-WW 81.4 μM in cell, P33 in syringe. As to the method: Synthesis of acetyl-Fe65-WW, acetyl-Pin1-WW, and the control PPPPP (structures involved in Figure 2) was carried out on a Rink Amide AM (0.3 mmol∙g^−1) resin using Fmoc chemistry and activation with HATU in the presence of DIPEA. Cleavage was achieved by a treatment with TFA/H2O/triisopropylsilane/1,4-dithio-DL-threitol/phenol (90:5:3:1:1) at room temperature (RT). TFA was removed in vacuo, the peptides were then precipitated using cold, dry diethyl-ether, dissolved in ACN/H2O and lyophilized.
Isothermal titrations were performed using a Microcal VP-ITC (Malvern Instruments, Malvern, UK) microcalorimeter. Binding experiments were carried out in degassed phosphate-buffered saline (PBS) at pH 7.4. The concentrations of Fe65-WW and Pin1-WW were normalized for the peptide contents. In one titration experiment, 10-μL portions of the ligand-containing solution (P33 or PPPPP) were injected from a computer-controlled 300-μL microsyringe at intervals of 300 s into the solution of the WW domain (Fe65-WW or Pin1-WW), dissolved in the same buffer as for the ligand. The rev of the microsyringe was set to 307 rpm. […] Control experiments were performed by injecting P33 or PPPPP into the cell containing plain buffer without the WW domain, with results achieved via subtracting the dilution heats from those measured in the presence of the WW domain.

As for `C[C@@H](N)C(=O)N1CCC[C@@H]1C(=O)N[C@H](C)C(=O)N1CCC[C@@H]1C(=O)N[C@H](CCC(=O)O)C(N)=O` [P33] (HELM PEPTIDE1{[dA].[dP].[dA].[dP].[dE].[am]}$$$$V2.0), the “density of hyperreactive (GFAP-positive) astrocytes (in words)” value in the assay with GFAP-positive astrocytes was “higher in the whole HC and CTX of the APP/PS1-vehicle group, than in the other three groups”. Also, in assay [1], the “binding to Pin1-WW (in words)” value is on record as “no considerable binding; also recorded: no detectable binding to the Pin1-WW could be observed”.
